The target in experiment [1] is T1, human myosin-6 (M6-2R) (Homo sapiens, UniProt Q9UM54). Briefly: stopped-flow fluorescence, KD = k−D/k+D. In kind it is binding. Details: gene MYO6; M6-2R (human myosin-6 motor domain, amino acids 1-816, fused to artificial lever). As to conditions: read-out: Hs Myosin-6 ^a^, ^b.
For experiment [2], the target named is T1, human myosin-6 (M6-2R). Briefly: stopped-flow, ATP binding to pyrene-acto•M6-2R; steady-state ATPase turnover. Details: gene MYO6; M6-2R (human myosin-6 motor domain, amino acids 1-816, fused to artificial lever); with F-actin (pyrene-actin). The text has this:
stopped-flow, ATP binding to pyrene-acto•M6-2R; steady-state ATPase turnover on human myosin-6 (M6-2R) | ATP binding to the complex formed by pyrene–actin and M6-2R show a linear dependence on [ATP]

The next experiment addresses T2, human myosin-6 (Homo sapiens, UniProt Q9UM54).
T2 construct: gene MYO6; human myosin-6 motor domain construct M6-2R (amino acids 1-816)
The experiment can be described thus: myosin-6 ATPase assay; MST affinity ranking. In kind it is biochemical.

Experiment [3] deals with T1, human myosin-6 (M6-2R). Briefly: stopped-flow fluorescence, second-order binding rate constant K1k+[…]. Also noted: gene MYO6; M6-2R (human myosin-6 motor domain, amino acids 1-816, fused to artificial lever).
Experiment [4] addresses T1, human myosin-6 (M6-2R). The experiment can be described thus: actin-activated ATPase assay (NADH-coupled), biphasic inhibition; binding also by MST (data not shown). In kind it is biochemical. Details: gene MYO6; amino acids 1-816 of human myosin-6 motor domain fused to an artificial lever derived from Dictyostelium discoideum α-actinin (M6-2R); with F-actin (rabbit skeletal muscle); calmodulin associated with insert-2.

T1 sequence (Q9UM54 1-816): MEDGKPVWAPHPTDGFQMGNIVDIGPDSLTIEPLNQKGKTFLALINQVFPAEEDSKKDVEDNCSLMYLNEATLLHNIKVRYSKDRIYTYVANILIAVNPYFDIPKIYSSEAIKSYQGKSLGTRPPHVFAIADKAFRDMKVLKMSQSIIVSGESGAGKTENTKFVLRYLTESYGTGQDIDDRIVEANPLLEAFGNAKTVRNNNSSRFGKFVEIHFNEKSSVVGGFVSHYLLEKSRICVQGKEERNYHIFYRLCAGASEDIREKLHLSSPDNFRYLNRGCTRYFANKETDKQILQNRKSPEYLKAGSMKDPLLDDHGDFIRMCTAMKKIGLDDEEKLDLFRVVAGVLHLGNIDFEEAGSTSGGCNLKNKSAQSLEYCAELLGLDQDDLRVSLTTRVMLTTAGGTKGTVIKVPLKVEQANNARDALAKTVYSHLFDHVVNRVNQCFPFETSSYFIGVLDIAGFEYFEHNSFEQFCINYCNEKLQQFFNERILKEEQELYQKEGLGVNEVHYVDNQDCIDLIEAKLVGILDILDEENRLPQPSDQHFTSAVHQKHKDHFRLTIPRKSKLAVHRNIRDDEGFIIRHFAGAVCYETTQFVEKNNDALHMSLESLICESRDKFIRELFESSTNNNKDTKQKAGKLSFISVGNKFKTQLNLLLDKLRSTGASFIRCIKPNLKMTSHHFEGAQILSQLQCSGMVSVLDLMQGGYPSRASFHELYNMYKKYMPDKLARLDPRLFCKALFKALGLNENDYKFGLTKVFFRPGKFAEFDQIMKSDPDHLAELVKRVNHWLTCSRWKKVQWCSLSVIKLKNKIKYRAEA
T2 sequence (Q9UM54 1-816): as above

With mantADP, at human myosin-6 (M6-2R) [1], the Kd was 2000 ± 150 nM.

One may read the kon as the rate constant with which the complex forms. The compound `Nc1ncnc2c1ncn2[C@@H]1O[C@H](COP(=O)(O)OP(=O)(O)OP(=O)(O)O)[C@@H](O)[C@H]1O` [ATP] gave a kon on human myosin-6 (M6-2R) [2] of 11000 ± 300 M⁻¹ s⁻¹.

For the compound `Oc1c(Br)c(Br)c(Br)c(Br)c1Br` [pentabromophenol], on human myosin-6, the “myosin-6 ATPase assay; MST affinity ranking” value is “Pentabromophenol and TIP inhibit myosin-6 ATPase activity in the low micromolar range”.

`CNc1ccccc1C(=O)O[C@H]1C[C@H](n2cnc3c(N)ncnc32)O[C@@H]1COP(=O)(O)OP(=O)(O)OP(=O)(O)O` [d-mantATP, 2′-deoxy-3′-O-(N′-methylanthraniloyl)adenosine-5′-O-triphosphate] gave an on-rate (kon) on human myosin-6 (M6-2R) [3] of 50000 ± 10000 M⁻¹ s⁻¹.

In general, Ki refers to a dissociation constant, usually derived from enzyme kinetics or from competition with a known ligand. With `Oc1c(I)cc(I)cc1I` [TIP, 2,4,6-triiodophenol], the affinity at human myosin-6 (M6-2R) [4], expressed as Ki, was 800 ± 500 nM.

These data come from PMC3527664, “Kinetic properties and small-molecule inhibition of human myosin-6” (Febs Letters, 2012).
